Measured values from patent US20220235065A1 (Epizyme, Inc., priority 2016, published 2022).

Columns and labels:
[1] = biological target: T1, recombinant purified human EHMT2 913-1193 (Homo sapiens, UniProt Q96KQ7); test: EHMT2 enzyme assay on histone peptide substrate (3H-SAM Flashplate); type: biochemical; conditions: read-out: EHMT2 PEP (IC50 μM)
T1 construct: Recombinant purified human EHMT2 913-1193 (55 μM) synthesized by Viva was used for all experiments; purchased Viva
T1 sequence (Q96KQ7 913-1193): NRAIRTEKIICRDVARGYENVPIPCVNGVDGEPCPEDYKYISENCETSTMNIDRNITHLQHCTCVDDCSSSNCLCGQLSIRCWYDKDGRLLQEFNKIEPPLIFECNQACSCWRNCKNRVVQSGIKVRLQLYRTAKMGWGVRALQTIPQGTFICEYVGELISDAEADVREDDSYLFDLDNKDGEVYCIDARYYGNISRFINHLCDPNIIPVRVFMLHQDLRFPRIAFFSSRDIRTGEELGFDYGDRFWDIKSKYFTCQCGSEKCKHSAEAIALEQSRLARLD
Experimental: Recombinant purified human EHMT2 913-1193 (55 μM) synthesized by Viva was used for all experiments. Biotinylated histone peptides were synthesized by Biopeptide and HPLC-purified to >95% purity. Streptavidin Flashplates and seals were purchased from PerkinElmer and 384 Well V-bottom Polypropylene Plates were from Greiner. ^3H-labeled S-adenosylmethionine (3H-SAM) was obtained from American Radiolabeled Chemicals with a specific activity of 80 Ci/mmol. Unlabeled SAM and S-adenosylhomocysteine (SAH) were obtained from American Radiolabeled Chemicals and Sigma-Aldrich respectively. Flashplates were washed in a Biotek ELx-405 with 0.1% Tween. 384-well Flashplates and 96-well filter binding plates were read on a TopCount microplate reader (PerkinElmer). Compound serial dilutions were performed on a Freedom EVO (Tecan) and spotted into assay plates using a Thermo Scientific Matrix PlateMate (Thermo Scientific). Reagent cocktails were added by Multidrop Combi (Thermo Scientific).
General Procedure for EHMT2 Enzyme Assay on Histone Peptide Substrate.
10-point curves of test compounds were made on a Freedom EVO (Tecan) using serial 3-fold dilutions in DMSO, beginning at 2.5 mM (final top concentration of compound was 50 μM and the DMSO was 2%). A 1 μL aliquot of the inhibitor dilution series was spotted in a polypropylene 384-well V-bottom plate (Greiner) using a Thermo Scientific Matrix PlateMate (Thermo Scientific). The 100% inhibition control consisted of 1 mM final concentration of the product inhibitor S-adenosylhomocysteine (SAH, Sigma-Aldrich). Compounds were incubated for 30 minutes with 40 μL per well of 0.031 nM EHMT2 (recombinant purified human EHMT2 913-1193, Viva) in 1× assay buffer (20 mM Bicine [pH 7.5], 0.002% Tween 20, 0.005% Bovine Skin Gelatin and 1 mM TCEP). 10 μL per well of substrate mix comprising assay buffer, ^3H-SAM (3H-labeled S-adenosylmethionine, American Radiolabeled Chemicals, specific activity of 80 Ci/mmol), unlabeled SAM (American Radiolabeled Chemicals), and peptide representing histone H3 residues 1-15 containing C-terminal biotin (appended to a C-terminal amide-capped lysine, synthesized by Biopeptide and HPLC-purified to greater than 95% purity) were added to initiate the reaction (both substrates were present in the final reaction mixture at their respective Km values, an assay format referred to as “balanced conditions”). Reactions were incubated for 60 minutes at room temperature and quenched with 10 μL per well of 400 μM unlabeled SAM, then transferred to a 384-well streptavidin Flashplate (PerkinElmer) and washed in a Biotek ELx-405 well washer with 0.1% Tween after 60 minutes. 384-well Flashplates were read on a TopCount microplate reader (PerkinElmer).
IC50 curves were generated using triplicate wells per concentration of compound. The IC50 is the concentration of compound at which measured methylation is inhibited by 50% as interpolated from the dose response curves. IC50 values were calculated using a non-linear regression (variable slope-four parameter fit model) with by the following formula
where Top is fixed at 100% and Bottom is fixed to 0%, [I]=concentration of inhibitor, IC50=half maximal inhibitory concentration and n=Hill Slope.

[2] = biological target: T2, EHMT1 (Homo sapiens, UniProt Q9H9B1); test: EHMT1 PEP (EHMT1 peptide enzyme assay); type: biochemical; conditions: peptide substrate enzyme assay
T2 sequence (Q9H9B1 1-1298): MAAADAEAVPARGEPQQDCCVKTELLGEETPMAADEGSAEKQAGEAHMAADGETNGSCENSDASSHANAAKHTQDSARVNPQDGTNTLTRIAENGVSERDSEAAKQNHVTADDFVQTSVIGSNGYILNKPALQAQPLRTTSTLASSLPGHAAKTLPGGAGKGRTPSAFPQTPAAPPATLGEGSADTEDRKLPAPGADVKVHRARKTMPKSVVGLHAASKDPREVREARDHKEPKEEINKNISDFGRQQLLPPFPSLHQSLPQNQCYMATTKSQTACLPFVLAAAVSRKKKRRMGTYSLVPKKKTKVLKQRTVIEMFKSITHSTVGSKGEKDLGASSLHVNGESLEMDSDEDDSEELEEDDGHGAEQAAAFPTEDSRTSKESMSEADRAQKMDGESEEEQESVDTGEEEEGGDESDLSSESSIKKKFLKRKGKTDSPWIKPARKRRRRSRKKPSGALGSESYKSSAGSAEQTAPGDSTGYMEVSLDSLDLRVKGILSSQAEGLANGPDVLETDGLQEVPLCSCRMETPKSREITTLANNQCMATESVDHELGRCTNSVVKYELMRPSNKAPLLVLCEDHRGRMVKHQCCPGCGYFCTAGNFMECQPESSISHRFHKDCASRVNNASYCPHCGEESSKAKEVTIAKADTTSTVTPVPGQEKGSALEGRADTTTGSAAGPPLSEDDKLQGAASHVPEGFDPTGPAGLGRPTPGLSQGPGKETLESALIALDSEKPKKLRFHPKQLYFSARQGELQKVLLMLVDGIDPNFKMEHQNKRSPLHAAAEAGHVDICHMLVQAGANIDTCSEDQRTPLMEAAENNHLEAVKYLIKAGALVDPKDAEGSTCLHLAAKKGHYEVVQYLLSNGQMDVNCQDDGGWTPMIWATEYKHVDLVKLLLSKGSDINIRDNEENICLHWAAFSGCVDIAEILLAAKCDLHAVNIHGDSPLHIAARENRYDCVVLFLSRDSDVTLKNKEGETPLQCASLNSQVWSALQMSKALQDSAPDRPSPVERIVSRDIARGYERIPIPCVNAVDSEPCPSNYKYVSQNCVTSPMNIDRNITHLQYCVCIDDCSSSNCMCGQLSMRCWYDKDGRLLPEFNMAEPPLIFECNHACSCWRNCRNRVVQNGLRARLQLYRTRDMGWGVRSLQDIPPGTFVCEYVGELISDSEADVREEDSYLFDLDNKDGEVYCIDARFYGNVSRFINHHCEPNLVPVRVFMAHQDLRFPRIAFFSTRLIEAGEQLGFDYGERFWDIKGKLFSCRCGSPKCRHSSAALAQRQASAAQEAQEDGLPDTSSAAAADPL

| Structure (SMILES) | IC50 [1] | IC50 [2] |
| --- | --- | --- |
| CNCc1cnn(-c2cc3c(cc2OC)C2(CCC2)C(NC)=N3)c1 [Compound 187] | < 0.1 µM | < 0.1 µM |
| CNc1cc(C)nc(Nc2cnc(OC)c(-n3cc(C4CCCN4)cn3)c2)n1 (stereo not shown) [Compound 188] | 0.1 to 1 µM | 0.1 to 1 µM |
| COc1cc2c(cc1-n1cc(C3CCCN3)nn1)N=C(N)C21CCC1 (stereo not shown) [Compound 194] | < 0.1 µM | < 0.1 µM |
| COc1cc2c(cc1-n1cc([C@@H]3CCCN3)nn1)N=C(N)C21CCC1 [Compound 195] | 0.1 to 1 µM | 0.1 to 1 µM |
| CNc1cc(C2CCOCC2)c2cc(OC)c(-n3cc(C4CCCN4)nn3)cc2n1 (stereo not shown) [Compound 196] | 0.1 to 1 µM | 0.1 to 1 µM |
| COc1cc(NC2CCNCC2)ncc1-c1cc2ccncc2[nH]1 [Compound 205] | > 10 µM | 1 to 10 µM |
| CNc1cc(C)nc(Nc2ccc(OC)c(-c3cc4[nH]c(C)cc4cn3)c2)n1 [Compound 207] | < 0.1 µM | < 0.1 µM |
| COc1cc(NC2CCNCC2)ncc1-c1cc2[nH]ccc2cn1 [Compound 208] | 1 to 10 µM | 1 to 10 µM |
| CNc1nc2cc(-c3cc4[nH]ccc4cn3)c(OC)cc2n1C [Compound 209] | 1 to 10 µM | 0.1 to 1 µM |
| CNc1cc(C)nc(Nc2ccc(OC)c(-c3cc4[nH]cnc4cn3)c2)n1 [Compound 210] | 1 to 10 µM | < 0.1 µM |
| CNc1cc(C)nc(Nc2ccc(OC)c(-n3cc([C@H]4CCCN4)nn3)c2)n1 [Compound 213] | 0.1 to 1 µM | < 0.1 µM |
| CNC1=Nc2cc(-c3cc4[nH]ccc4cn3)c(OC)cc2C12CCC2 [Compound 214] | < 0.1 µM | < 0.1 µM |
| CNC1=Nc2cc(-c3[nH]c4cnccc4c3Cl)c(OC)cc2C12CCC2 [Compound 216] | < 0.1 µM | < 0.1 µM |
| CNc1cc(C)nc(Nc2ccc(OC)c(-c3ccc4c(c3)NC(=O)C4)c2)n1 [Compound 218] | > 10 µM | > 10 µM |
| CNc1cc(C)nc(Nc2ccc(OC)c(-c3cc4c(cn3)CC(=O)N4)c2)n1 [Compound 219] | 1 to 10 µM | 0.1 to 1 µM |

Next, values leading:

| IC50 [1] | IC50 [2] | Structure (SMILES) |
| --- | --- | --- |
| 1 to 10 µM | 0.1 to 1 µM | CNc1ccnc(Nc2ccc(OC)c(-n3cc(CNC4CCC4)nn3)c2)n1 [Compound 191] |
| < 0.1 µM | < 0.1 µM | CNC1=Nc2cc(-n3cc([C@H]4CCCN4)nn3)c(OC)cc2C12CCC2 [Compound 192] |
| < 0.1 µM | < 0.1 µM | COc1cc2c(cc1-n1cc([C@H]3CCCN3)nn1)N=C(N)C21CCC1 [Compound 193] |
| < 0.1 µM | < 0.1 µM | CNc1cc(C)nc(Nc2ccc(OC)c(-c3[nH]c4cnccc4c3F)c2)n1 [Compound 199] |
| < 0.1 µM | < 0.1 µM | CNc1cc(C)nc(Nc2ccc(OC)c(-c3[nH]c4cnccc4c3C)c2)n1 [Compound 200, N2-(4-methoxy-3-(3-methyl-1H-pyrrolo[2,3-c]pyridin-2-yl)phenyl)-N4,6-dimethylpyrimidine-2,4-diamine] |
| 1 to 10 µM | 1 to 10 µM | CNc1cc(C)nc(Nc2ccc(OC)c(-c3cc4ncncc4[nH]3)c2)n1 [Compound 201] |
| < 0.1 µM | < 0.1 µM | COc1cc2c(cc1-c1cc3ccncc3[nH]1)N=C(N)C21CCC1 [Compound 202] |
| 1 to 10 µM | 1 to 10 µM | CNc1cc(C)nc(Nc2cnc(OC)c(-c3cc4ccncc4[nH]3)c2)n1 [Compound 204] |
| < 0.1 µM | < 0.1 µM | CNc1cc(C)nc(Nc2ccc(OC)c(-c3cc4[nH]ccc4cn3)c2)n1 [Compound 206, N2-(4-methoxy-3-(1H-pyrrolo[3,2-c]pyridin-6-yl)phenyl)-N4,6-dimethylpyrimidine-2,4-diamine] |
| < 0.1 µM | < 0.1 µM | CNc1cc(C)nc(Nc2ccc(OC)c(-n3cc([C@@H]4CCCN4)nn3)c2)n1 [Compound 212, (S)—N2-(4-methoxy-3-(4-(pyrrolidin-2-yl)-1H-1,2,3-triazol-1-yl)phenyl)-N4,6-dimethylpyrimidine-2,4-diamine] |
| < 0.1 µM | < 0.1 µM | CNC1=Nc2cc(-c3cc4ccncc4[nH]3)c(OC)cc2C12CCC2 [Compound 215] |
